Source: patent US7074796B2 (H. Lundbeck A/S, priority 1999, dated 2006)
Counter-ions that a name gives are not always drawn.

Row | Structure (SMILES) | melting point
1 | Clc1cccc(N2CCN(CCCCC3CCc4ccccc43)CC2)c1Cl (centres unmarked) (as salt: oxalate) [Compound 3, 1-(2,3-Dichlorophenyl)-4-[4-(indan-1-yl)butyl]piperazine] | 171 to 176 °C
2 | Clc1ccc2c(SCCN3CCN(c4cccc(Cl)c4Cl)CC3)c[nH]c2c1 (as salt: oxalate) [Compound 4, 6-Chloro-3-{2-[4-(2,3-dichlorophenyl)piperazin-1-yl]ethylsulfanyl}-1H-indole] | 137 to 141 °C
